Results as given in EPA's ToxValDB 9.5.
“And” between values parts separate entries of the source, which are not always exact repeats. Equal values may be shown once.

Columns and labels:
Mus musculus [1] = conditions: subchronic; duration: 13 weeks; oral; gavage; Liver: Lesions
Rattus norvegicus [2] = conditions: subchronic, M/F
Mus musculus [3] = conditions: oral, M/F
Rattus norvegicus [4] = conditions: oral, gavage
Gallus sp. = conditions: repeat dose other; oral
Mus musculus [5] = conditions: repeat dose other; oral
Oryctolagus sp. [6] = test system: Oryctolagus sp.
Oryctolagus sp. [7] = test system: Oryctolagus sp.; remark: listed apart in the source
Rattus norvegicus [8] = conditions: oral
Oryctolagus sp. [9] = conditions: New Zealand; for NOAEL: reproduction developmental, duration: 13 days, oral
Anas platyrhynchos = conditions: oral
Homo sapiens [10] = conditions: clinical, oral
Homo sapiens [11] = conditions: clinical; oral; M/F; central nervous system depression and gi irritation in humans
Rattus norvegicus [12] = conditions: hepatic; for NOAEL: M/F
Mus musculus [13] = conditions: oral, gavage, M/F
Chrysomus sp. = conditions: oral
Rattus norvegicus [14] = assay: LD0; higher = less toxic; conditions: acute; oral; gavage
Oryctolagus sp. [15] = assay: LD0; higher = less toxic; conditions: acute; dermal; New Zealand
Rattus norvegicus [16] = conditions: uterotrophic; duration: 3 days; injection; subcutaneous; Active
Rattus norvegicus [17] = conditions: chronic, Liver: Toxicity
Homo sapiens [18] = conditions: clinical; duration: 1 days; inhalation; chamber; M/F; neurological
Rattus norvegicus [19] = conditions: repeat dose other; oral
Mus musculus [20] = conditions: oral
Mus musculus [21] = conditions: oral; remark: listed apart in the source
[22] = developmental, oral, F, maternal (reduced weight gain) and fetal toxicity
[23] = subchronic, inhalation, M/F, functional and histological peripheral neurotoxicity
[24] = chronic, duration: 104 weeks, hepatic necrosis
[25] = subchronic, nephropathy, increased liver weight, hematological alterations, and clinical effects
[26] = short-term, duration: 28 days, M, Sprague-Dawley, Functional Observational Battery: No urination (week1) + Body Weight Changes: decrease + Food Consumption: decrease + Urinalysis: Volume …
[27] = subchronic, gavage, clinical signs (lethargy, prostration, and ataxia and hematological changes
[28] = short-term, duration: 28 days, gavage, Sprague-Dawley

## c1ccoc1 [Furan]
Mus musculus [1]
  NOAEL: 1.4 mg/kg-day
Rattus norvegicus [2]; oral, hepatic lesions
  LOAEL: 4 mg/kg-day
Mus musculus [3]; subchronic, hepatic lesions
  NOAEL: 2 mg/kg-day
Rattus norvegicus [4]; subchronic, duration: 13 weeks, M/F, Fischer 344, Deaths + Body Weight Changes: decrease + Absolute Organ Weight: Right kidney increase, Liver increase, Thymus decrease + Relative Organ …
  NOEL: < 4 mg/kg-day

## [Cl][Al]([Cl])[Cl] [Aluminum chloride]
Gallus sp.
  LOAEL: 44.5 mg/kg-day
Mus musculus [5]
  LOAEL: 19.3 mg/kg-day
  NOAEL: 1.93 mg/kg-day

## COc1c(Cl)ccc(Cl)c1C(=O)O [Dicamba]
Oryctolagus sp. [6]; developmental, duration: 12 days, oral, gavage, Dam: Decreased weight gain + Fetus: Decreased weight + Fetus: Increased mortality + Fetus: Increased post-implantation losses
  NOAEL: 3 mg/kg-day
Oryctolagus sp. [7]; [22]
  LEL: 10 mg/kg-day
  NOEL: 3 mg/kg-day
Rattus norvegicus [8]; developmental, duration: 14 days, gavage, Crj:CD
  NOAEL: ≤ 400 mg/kg-day
Rattus norvegicus [8]; reproduction developmental, duration: 14 days, gavage, F, Crj:CD
  NOAEL: ≤ 160 mg/kg-day
Oryctolagus sp. [9]; F
  NOAEL: ≤ 30 mg/kg-day
Oryctolagus sp. [9]; generation: F1
  NOAEL: ≤ 300 mg/kg-day

## O=[As][O-].[Na+] [Sodium arsenite]
Anas platyrhynchos
  LOAEL: 12.8 mg/kg-day
  NOAEL: 5.14 mg/kg-day

## CN(C)[C@@H]1C(=O)C(C(N)=O)=C(O)[C@@]2(O)C(=O)C3=C(O)c4c(O)cccc4[C@@](C)(O)[C@H]3C[C@@H]12 [Tetracycline]
Homo sapiens [10]; Selection of resistant bacterial strains
  NOEL: 0.033 mg/kg-day

## C=CCCl [Allyl chloride]
Oryctolagus sp. [6]; chronic, duration: 5 months, inhalation, intermittent, Nervous system: Neurotoxicity
  NOAEL: 17 mg/m3
Oryctolagus sp. [7]; [23]
  LOAEL: 206 mg/m3
  NOAEL: 17 mg/m3

## OC(O)C(Cl)(Cl)Cl [Chloral hydrate]
Homo sapiens [11]
  LOAEL: 10.7 mg/kg-day

## CC[C@@H]1CCN[C@H](C(=O)N[C@@H]([C@H]2O[C@H](SC)[C@H](O)[C@@H](O)[C@H]2O)[C@H](C)Cl)C1 [Pirlimycin]
Homo sapiens [10]; capsule, M, Clostridium difficile in stool
  NOEL: 50 mg

## ClC1=C(Cl)C2(Cl)C3C(Cl)C(Cl)CC3C1(Cl)C2(Cl)Cl (stereo not given) [Technical chlordane]
Rattus norvegicus [12]; subchronic, duration: 90 days, inhalation, Wistar
  NOAEL: 0.1 mg/m3
Mus musculus [13]; developmental, duration: 7 days, albino, developmental
  LOAEL: 1 mg/kg-day
Rattus norvegicus [2]; inhalation, hepatic effects
  NOAEL: 1 mg/m3
Mus musculus [3]; [24]
  LOAEL: 0.75 mg/kg-day
  NOAEL: 0.15 mg/kg-day
Chrysomus sp.
  LOAEL: 10.7 mg/kg-day
  NOAEL: 2.14 mg/kg-day
Mus musculus [5]
  LOAEL: 9.2 mg/kg-day
  NOAEL: 4.6 mg/kg-day

## CCCCC(CC)COP(=O)(O)O (stereo not given) [2-Ethylhexyl dihydrogen phosphate]
Rattus norvegicus [14]
  LD0: 3640 mg/kg
Oryctolagus sp. [15]
  LD0: 11300 mg/kg
Rattus norvegicus [8]; acute, gavage, Sprague-Dawley
  LD50: 4100 mg/kg and 2710 mg/kg
Oryctolagus sp. [9]; acute, dermal
  LD50: > 4640 mg/kg

## c1ccc2c(c1)-c1cccc3cccc-2c13 [Fluoranthene]
Mus musculus [13]; subchronic, duration: 90 days, CD1, hepatic
  LOAEL: 125 mg/kg-day
Mus musculus [3]; [25]
  LOAEL: 250 mg/kg-day
  NOAEL: 125 mg/kg-day
Rattus norvegicus [16]
  LEL: 10 mg/kg-day

## CCC[C@@H]1C[C@@H](C(=O)N[C@@H]([C@H]2O[C@H](SC)[C@H](O)[C@@H](O)[C@H]2O)[C@@H](C)O)N(C)C1 [Lincomycin]
Homo sapiens [10]; duration: 12 months, Change in gut flora
  NOEL: 2.5 mg/kg-day

## COP(=O)(OC)C(O)C(Cl)(Cl)Cl (stereo not given) [Trichlorfon]
Homo sapiens [10]; duration: 10 weeks, Inhibition of acetylcholinesterase activity
  LOEL: 0.2 mg/kg-day

## [Cu+].[Cu+].[O-2] [Cuprous oxide]
Gallus sp.
  LOAEL: 61.7 mg/kg-day
  NOAEL: 47 mg/kg-day

## ClCCl [Dichloromethane]
Rattus norvegicus [17]; duration: 2 years, inhalation, intermittent
  NOAEL: 695 mg/m3
Rattus norvegicus [17]; duration: 24 months, oral, drinking water
  NOAEL: 5.85 mg/kg-day
Rattus norvegicus [12]; chronic, duration: 2 years, inhalation, Sprague-Dawley
  NOAEL: 174 mg/m3
Rattus norvegicus [12]; chronic, duration: 14 weeks, inhalation, unknown
  LOAEL: 86.8 mg/m3
Rattus norvegicus [12]; chronic, duration: 104 weeks, oral, drinking water, Fischer-344
  NOAEL: 6 mg/kg-day
Homo sapiens [18]
  LOAEL: 1040 mg/m3
Rattus norvegicus [19]
  LOAEL: 50 mg/kg-day
  NOAEL: 5.85 mg/kg-day

## CN(C)N=O [N-Nitrosodimethylamine]
Mus musculus [20]; developmental, duration: 100 days, drinking water, F, CD1, developmental
  LOAEL: 0.025 mg/kg-day
Rattus norvegicus [4]; [26]
  NOAEL: < 0.8 mg/kg-day
  NOEL: < 0.8 mg/kg-day

## Cc1ccc(O)c(C)c1 [2,4-Dimethylphenol]
Mus musculus [3]; [27]
  LOAEL: 250 mg/kg-day
  NOAEL: 50 mg/kg-day
Mus musculus [20]; subchronic, duration: 90 days, gavage, M/F, Crl:CD-1(ICR)BR-VAF+, Whole Body Effects
  NOAEL: 50 mg/kg-day
Rattus norvegicus [8]; acute
  LC50: 2300 mg/kg
Mus musculus [21]; acute
  LC50: 809 mg/kg
Mus musculus [21]; subchronic, duration: 90 days, gavage, F
  NOAEL: 50 mg/kg-day

## NC1CCCCC1N (stereo not given) [1,2-Cyclohexanediamine]
Oryctolagus sp. [15]
  LD0: 7500 mg/kg
Rattus norvegicus [8]; acute, gavage, Sprague-Dawley
  LD50: 1100 mg
Rattus norvegicus [8]; [28]
  LOAEL: 250 mg/kg-day
  NOAEL: 100 mg/kg-day
Rattus norvegicus [8]; subchronic, duration: 13 weeks, gavage, Crj:CD
  NOAEL: 125 mg/kg-day
